According to US20260055152A1, “INTRACELLULAR CX3CL1 DOMAIN PEPTIDES AND USES THEREOF” (University of Connecticut, priority 2022, published 2026):

Tested on: Akt
Experiment: Akt inhibition assay in cultured N2A cells
Assay type: cell-based, mouse

Which results are given for `NC1(c2ccc(-c3nc4ccn5c(=O)[nH]nc5c4cc3-c3ccccc3)cc2)CCC1` [MK2206]?
phosphorylation of GSK3β and Foxo3 (N2A cells treated with 2 μM Tet34 or controls 24 hrs, then 2 μM MK2206 3hrs): diminish; Tet34 induced effects on Foxo3 phosphorylation (N2A cultures with Tet-CX3CL1-ICD peptides in presence of MK2206): abolished
